{"source": "patent US20070010484A1", "about": "“Method for treating or inhibiting the effects of injuries or diseases that result in neuronal degeneration and method for promoting neurogenesis” (YEDA RESEARCH AND DEVELOPMENT CO. LTD., priority 2003, published 2007)", "key": {"[1]": {"system": "IFN-γ", "test": "IFN-γ secretion by anti-CD3-activated T cells, ELISA", "assay_type": "cell-based, human", "conditions": "2 h pretreatment, then anti-CD3 activation 24 h", "procedure": "Assay of IFN-γ secretion. Human T cells were purified and maintained in culture (RPMI containing 10% FCS, 1% pyruvate, 1% glutamine, 1% antibiotics, in a humidified atmosphere of 7% CO2in air), and the cells were activated for 2 h with the indicated concentrations of CSPG-DS. In order to stimulate the cells to secrete cytokines, they were replated (1×10^6 cells in 0.5 ml culture medium per well) in 24-well plates precoated with 1 μg/ml immobilized anti-CD3 mAb (non-tissue-culture grade). After 24 h the supernatants were collected and their IFN-γ contents determined by ELISA, using anti-IFN-γ mAb (Pharmingen, San Diego, Calif.) according to the manufacturer's instructions."}, "[2]": {"system": "human T cells", "test": "T-cell chemotaxis towards SDF-1α, transwell", "assay_type": "cell-based", "conditions": "2 h pretreatment, FN-coated transwell, 3 h, relative to untreated cells", "procedure": "Human T cells. T cells from the peripheral blood of healthy donors were isolated by negative selection using a RosetteSep™ antibody cocktail containing mabs against CD16, CD19, CD36, and CD56 (StemCell Technologies, Vancouver, BC). After incubation with the cocktail for 20 min at room temperature, blood samples were diluted in PBS with 2% fetal bovine serum, loaded on a Ficoll column (ICN Biomedical, Aurora, Ohio), and centrifuged at 1200× g for 20 min at room temperature. The cells were removed from the Ficoll column, washed, and cultured in RPMI containing antibiotics and 10% heat-inactivated FCS. T-cell chemotaxis. Migration of purified human T cells was measured with a transwell apparatus (6.5 mm diameter; Corning, New York, N.Y.) fitted with polycarbonate filters (pore size 5 μm). The filters separating the upper and lower chambers were pretreated with FN (20 μg/ml) for 1 h at 37° C. ^51[Cr]-labeled T cells were preincubated for 2 h with CSPG-DS at the indicated concentrations, and then suspended (2×10^6/ml) in RPMI containing 0.1% BSA, 0.1% L-glutamine, and antibiotics, and added to the upper chamber. The bottom chambers contained the same RPMI medium, with or without human SDF-1α (50 ng/ml). […]"}, "[3]": {"system": "experimental autoimmune encephalomyelitis in mice", "test": "Experimental autoimmune encephalomyelitis (EAE)", "assay_type": "in vivo", "procedure": "Induction of experimental autoimmune encephalomyelitis. Mice were immunized s.c. at one site in the flank with 200 μl of emulsion consisting of myelin oligodendrocyte glycoprotein (MOG) […] (300 μg per mouse) emulsified in CFA supplemented with 500 μg of Mycobacterium tuberculosis (Difco, Detroit, Mich.). Clinical symptoms of experimental autoimmune encephalomyelitis (EAE) were examined and scored daily, as follows: 0, no clinical disease; 0.5, piloerection; 1, tail weakness; 1.5, tail paralysis; 2, hindlimb weakness; 3, hindlimb paralysis; 3.5, forelimb weakness; 4, forelimb paralysis; 5, moribund state or death."}, "[4]": {"system": "SOCS-3", "test": "Western blot of SOCS-3 in T cells", "assay_type": "cell-based, human", "conditions": "T cells pretreated with CSPG-DS, relative to untreated T cells", "procedure": "Western blot analysis of T-cell nuclear extracts. Purified T cells (5×10^6) were preincubated for 2 h with different concentrations of CSPG-DS. The cells were then replated at the same CSPG-DS concentration on 24-well plates pre-coated for 24 h with anti-CD3 mAb. The T cells were lysed in 10 mM HEPES, 1.5 mM MgCl2, 1 mM dithiothreitol, 1 mM PMSF, and 0.5% Nonidet P-40 (buffer A). The lysates were incubated on ice for 10 min and centrifuged at 2000 rpm for 10 min at 4° C. The supernatants (cytoplasmic extracts) were transferred and the pellets (nuclei) were suspended in buffer containing 30 mM HEPES, 450 mM NaCl, 25% glycerol, 0.5 mM EDTA, 6 mM dithiothreitol, 12 mM MgCl2 1 mM PMSF, 10 μg/ml leupeptin, 10 μg/ml pepstatin, and 1% phosphatase inhibitor cocktail (buffer B), and the suspension was incubated on ice for 30 min. The lysates were cleared by centrifugation (30 min, 14×10^3 rpm, 4° C.), and the resulting supernatants were analyzed for protein content. Sample buffer was added, the mixture was boiled, and the samples containing equal amounts of proteins were separated on 10% SDS-PAGE gel and transferred to nitrocellulose membranes. […]"}, "[5]": {"system": "PC12 cells", "test": "Neurite outgrowth assay in NGF-stimulated PC12 cells", "assay_type": "cell-based, rat", "conditions": "PC12 cells on collagen, NGF 10 ng/ml, sulfated CSPG-DSs added; mean±SD", "procedure": "PC12 cell line: Rat pheochromocytoma (PC12) cells were cultured in DMEM containing 8% horse serum and either 8% FCS (culture medium) or 1% FCS (differentiation medium), and antibiotics. For assays of neurite outgrowth, the cells were plated (10^5 cell/well) on 13-mm glass coverslips, precoated with collagen (500 μg/ml) in 24-well plates. Neurite outgrowth assays: PC12 cells were cultured for 24-72 h while being stimulated with 10 ng/ml NGF, with or without CSPG-DSs. Cell morphology was visualized under a phase-contrast microscope and neurite lengths were measured using ImagePro. At least 200 cells were measured for each condition."}, "[6]": {"system": "delayed-type hypersensitivity response in mice", "test": "Delayed-type hypersensitivity (DTH) assay, ear swelling", "assay_type": "in vivo", "conditions": "oxazalone-sensitized Balb/c mice, most efficient concentration of 1 μg/ml, relative to untreated", "procedure": "Assay for delayed-type hypersensitivity. Groups of female inbred Balb/c mice (n=4 per group) were sensitized with 2% oxazalone (100 μl;) dissolved in acetone/olive oil (4:1 (vol/vol)) applied topically on the shaved abdominal skin. A delayed-type hypersensitivity (DTH) response was elicited 5 days later by challenge with 0.5% oxazalone in acetone/olive oil (10 μl applied topically to each side of one ear, and measured with an engineer's micrometer (Mitutoyo, Elk Grove Village, Ill., Tokyo, Japan)). Immediately before and 24 h after antigen challenge, the marked area was measured again."}, "[7]": {"conditions": "MOG-immunized mice, 5 μg injections on days 0, 3, 5 and 7"}}}
{"compound": "CC(=O)N[C@H]1C(O)O[C@H](COS(=O)(=O)O)[C@H](O)[C@@H]1O[C@@H]1OC(C(=O)O)=C[C@H](O)[C@H]1O", "note": "(stereo partly drawn) [CSPG-DS, 2-acetoamido-2-deoxy-3-O-(β-D-gluco-4-enepyranosyluronic acid)-6-O-sulfo-D-galactose]", "values": [{"measurement": "secretion of IFN-γ", "setting": "[1]", "value": "significant reduction"}, {"measurement": "T-cell migration towards SDF-1α", "setting": "[2]", "value": "reduced"}, {"measurement": "duration of the disease (EAE)", "setting": "[3]; [7]", "value": "shortened"}, {"measurement": "symptoms of the disease (EAE score)", "setting": "[3]; [7]", "value": "significantly attenuated"}, {"measurement": "EAE disease with less frequent injections", "setting": "[3]; injection on day 0 only, or days 0 and 7", "value": "alleviated the disease"}, {"measurement": "SOCS-3 level", "setting": "[4]", "value": "increase"}, {"measurement": "mean neurite length", "setting": "[5]", "value": "107±7.8", "unit": "μm"}, {"measurement": "reduction in DTH response", "setting": "[6]", "value": 40, "unit": "%"}]}
